Test results published in PubChem BioAssay (NCI).
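Dose response: 5 concentrations. Exposure: 48 h. Format: 96-well plates. Endpoint: linear interpolation; highest concentration if not reached. At the TGI there is no net growth.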

Each compound was assayed on HCT-15 colon (assay: NCI-60 cell line screen, 48 h).

Row | SMILES | TGI [µM]
1 | CCc1nc(N)nc(N)c1-c1ccc2nn(-c3ccccc3)[n+]([O-])c2c1 | 18.8
2 | O=C(O)/C=N\Nc1nc2ccccc2[nH]1 | > 100
3 | CC(=O)OCCn1cnc2nc(Nc3ccccc3)nc(Cl)c21 | > 100
4 | Nc1nc(N)c2[nH]c(CNc3ccc(C(=O)O)cc3)nc2n1 | > 100
5 | CCC1(CC)SCc2nc3ccccc3n21 | > 100
6 | C[C@]12CC[C@H](O)CC1=CC[C@@H]1[C@@H]2CC[C@]2(C)C(=O)[C@@H](N3CCOCC3)C[C@@H]12 | > 100
7 | CNn1c(-c2ccccc2)n[nH]c1=O | > 100
8 | COc1ccc(CC2c3cc(Oc4cc(CC5c6cc(OC)c(OC)cc6CCN5C)ccc4O)c(OC)cc3CCN2C)cc1 (stereo not given) | 4.6
9 | COc1ccc(C(C)NNC(=O)c2ccncc2)c(OC)c1 (stereo not given) | > 100
10 | CC(C)(C)OC(=O)NCC(O)CNC(=O)OC(C)(C)C | > 100
11 | O=[N+]([O-])c1cc2oc(COc3ccccc3)nc2cc1Cl | 43.3
12 | Cc1ccc(S(=O)(=O)N/N=C/C(=C/c2ccc(Cl)cc2)CC(/C=N/NS(=O)(=O)c2ccc(C)cc2)=C\c2ccc(Cl)cc2)cc1 | 12.3
13 | CC(C)(C)c1cc(C(P(=O)(c2ccccc2)c2ccccc2)P(=O)(c2ccccc2)c2ccccc2)cc(C(C)(C)C)c1O | 6.96
14 | CC(C)(C)C(=O)OCC1CCC[N+]2(C)CCCCC12 (stereo not given) | > 100
15 | NS(=O)(=O)c1nn2c(Br)c(-c3ccccc3)nc2s1 | 11.6
16 | CCN(CC)c1c(N(CC)CC)c(=O)c1=O | 17
17 | CN(C)Cc1cc(C(=O)/C=C/c2ccc(Cl)cc2)cc(CN(C)C)c1O | 54.4
18 | O=[N+]([O-])c1ccc(Cl)c(C=NC23CC4CC(CC(C4)C2)C3)c1 | > 10

Each compound was assayed on LOX IMVI melanoma (assay: NCI-60 cell line screen, 48 h).

Row | SMILES | TGI [µM]
19 | CCc1nc(N)nc(N)c1-c1ccc2nn(-c3ccccc3)[n+]([O-])c2c1 | 17.7
20 | O=C(O)/C=N\Nc1nc2ccccc2[nH]1 | > 100
21 | CC(=O)OCCn1cnc2nc(Nc3ccccc3)nc(Cl)c21 | > 100
22 | Nc1nc(N)c2[nH]c(CNc3ccc(C(=O)O)cc3)nc2n1 | > 100
23 | CCC1(CC)SCc2nc3ccccc3n21 | > 100
24 | C[C@]12CC[C@H](O)CC1=CC[C@@H]1[C@@H]2CC[C@]2(C)C(=O)[C@@H](N3CCOCC3)C[C@@H]12 | > 100
25 | CNn1c(-c2ccccc2)n[nH]c1=O | > 100
26 | COc1ccc(CC2c3cc(Oc4cc(CC5c6cc(OC)c(OC)cc6CCN5C)ccc4O)c(OC)cc3CCN2C)cc1 (stereo not given) | 10.7
27 | COc1ccc(C(C)NNC(=O)c2ccncc2)c(OC)c1 (stereo not given) | > 100
28 | CC(C)(C)OC(=O)NCC(O)CNC(=O)OC(C)(C)C | > 100
29 | O=[N+]([O-])c1cc2oc(COc3ccccc3)nc2cc1Cl | 35
30 | Cc1ccc(S(=O)(=O)N/N=C/C(=C/c2ccc(Cl)cc2)CC(/C=N/NS(=O)(=O)c2ccc(C)cc2)=C\c2ccc(Cl)cc2)cc1 | 3.73
31 | CC(C)(C)c1cc(C(P(=O)(c2ccccc2)c2ccccc2)P(=O)(c2ccccc2)c2ccccc2)cc(C(C)(C)C)c1O | 4.04
32 | CC(C)(C)C(=O)OCC1CCC[N+]2(C)CCCCC12 (stereo not given) | > 100
33 | NS(=O)(=O)c1nn2c(Br)c(-c3ccccc3)nc2s1 | 4.49
34 | CCN(CC)c1c(N(CC)CC)c(=O)c1=O | 25.8
35 | CN(C)Cc1cc(C(=O)/C=C/c2ccc(Cl)cc2)cc(CN(C)C)c1O | 15.3
36 | O=[N+]([O-])c1ccc(Cl)c(C=NC23CC4CC(CC(C4)C2)C3)c1 | > 10

These compounds were tested on OVCAR-8 ovarian (assay: NCI-60 cell line screen, 48 h).

Row | SMILES | TGI [µM]
37 | CCc1nc(N)nc(N)c1-c1ccc2nn(-c3ccccc3)[n+]([O-])c2c1 | 26.8
38 | O=C(O)/C=N\Nc1nc2ccccc2[nH]1 | > 100
39 | CC(=O)OCCn1cnc2nc(Nc3ccccc3)nc(Cl)c21 | > 100
40 | Nc1nc(N)c2[nH]c(CNc3ccc(C(=O)O)cc3)nc2n1 | > 100
41 | CCC1(CC)SCc2nc3ccccc3n21 | > 100
42 | C[C@]12CC[C@H](O)CC1=CC[C@@H]1[C@@H]2CC[C@]2(C)C(=O)[C@@H](N3CCOCC3)C[C@@H]12 | > 100
43 | CNn1c(-c2ccccc2)n[nH]c1=O | > 100
44 | COc1ccc(CC2c3cc(Oc4cc(CC5c6cc(OC)c(OC)cc6CCN5C)ccc4O)c(OC)cc3CCN2C)cc1 (stereo not given) | 13.4
45 | COc1ccc(C(C)NNC(=O)c2ccncc2)c(OC)c1 (stereo not given) | > 100
46 | CC(C)(C)OC(=O)NCC(O)CNC(=O)OC(C)(C)C | > 100
47 | O=[N+]([O-])c1cc2oc(COc3ccccc3)nc2cc1Cl | > 100
48 | Cc1ccc(S(=O)(=O)N/N=C/C(=C/c2ccc(Cl)cc2)CC(/C=N/NS(=O)(=O)c2ccc(C)cc2)=C\c2ccc(Cl)cc2)cc1 | 12.8
49 | CC(C)(C)c1cc(C(P(=O)(c2ccccc2)c2ccccc2)P(=O)(c2ccccc2)c2ccccc2)cc(C(C)(C)C)c1O | 8.95
50 | CC(C)(C)C(=O)OCC1CCC[N+]2(C)CCCCC12 (stereo not given) | > 100
51 | NS(=O)(=O)c1nn2c(Br)c(-c3ccccc3)nc2s1 | 7.89
52 | CCN(CC)c1c(N(CC)CC)c(=O)c1=O | 27.6
53 | CN(C)Cc1cc(C(=O)/C=C/c2ccc(Cl)cc2)cc(CN(C)C)c1O | 51.3
54 | O=[N+]([O-])c1ccc(Cl)c(C=NC23CC4CC(CC(C4)C2)C3)c1 | > 7.79

Each compound was assayed on DU-145 prostate (assay: NCI-60 cell line screen, 48 h).

Row | SMILES | TGI [µM]
55 | CCc1nc(N)nc(N)c1-c1ccc2nn(-c3ccccc3)[n+]([O-])c2c1 | 20.1
56 | O=C(O)/C=N\Nc1nc2ccccc2[nH]1 | > 100
57 | CC(=O)OCCn1cnc2nc(Nc3ccccc3)nc(Cl)c21 | > 100
58 | Nc1nc(N)c2[nH]c(CNc3ccc(C(=O)O)cc3)nc2n1 | > 100
59 | CCC1(CC)SCc2nc3ccccc3n21 | > 100
60 | C[C@]12CC[C@H](O)CC1=CC[C@@H]1[C@@H]2CC[C@]2(C)C(=O)[C@@H](N3CCOCC3)C[C@@H]12 | > 100
61 | CNn1c(-c2ccccc2)n[nH]c1=O | > 100
62 | COc1ccc(CC2c3cc(Oc4cc(CC5c6cc(OC)c(OC)cc6CCN5C)ccc4O)c(OC)cc3CCN2C)cc1 (stereo not given) | 6.34
63 | COc1ccc(C(C)NNC(=O)c2ccncc2)c(OC)c1 (stereo not given) | > 100
64 | CC(C)(C)OC(=O)NCC(O)CNC(=O)OC(C)(C)C | > 100
65 | O=[N+]([O-])c1cc2oc(COc3ccccc3)nc2cc1Cl | > 100
66 | Cc1ccc(S(=O)(=O)N/N=C/C(=C/c2ccc(Cl)cc2)CC(/C=N/NS(=O)(=O)c2ccc(C)cc2)=C\c2ccc(Cl)cc2)cc1 | > 100
67 | CC(C)(C)c1cc(C(P(=O)(c2ccccc2)c2ccccc2)P(=O)(c2ccccc2)c2ccccc2)cc(C(C)(C)C)c1O | > 10
68 | CC(C)(C)C(=O)OCC1CCC[N+]2(C)CCCCC12 (stereo not given) | > 100
69 | NS(=O)(=O)c1nn2c(Br)c(-c3ccccc3)nc2s1 | 8.5
70 | CCN(CC)c1c(N(CC)CC)c(=O)c1=O | 23.3
71 | CN(C)Cc1cc(C(=O)/C=C/c2ccc(Cl)cc2)cc(CN(C)C)c1O | 24.4
72 | O=[N+]([O-])c1ccc(Cl)c(C=NC23CC4CC(CC(C4)C2)C3)c1 | > 10

Each compound was assayed on KM12 colon (assay: NCI-60 cell line screen, 48 h).

Row | SMILES | TGI [µM]
73 | CCc1nc(N)nc(N)c1-c1ccc2nn(-c3ccccc3)[n+]([O-])c2c1 | 41
74 | O=C(O)/C=N\Nc1nc2ccccc2[nH]1 | > 100
75 | CC(=O)OCCn1cnc2nc(Nc3ccccc3)nc(Cl)c21 | > 100
76 | Nc1nc(N)c2[nH]c(CNc3ccc(C(=O)O)cc3)nc2n1 | > 100
77 | CCC1(CC)SCc2nc3ccccc3n21 | 61.5
78 | C[C@]12CC[C@H](O)CC1=CC[C@@H]1[C@@H]2CC[C@]2(C)C(=O)[C@@H](N3CCOCC3)C[C@@H]12 | > 100
79 | CNn1c(-c2ccccc2)n[nH]c1=O | > 100
80 | COc1ccc(CC2c3cc(Oc4cc(CC5c6cc(OC)c(OC)cc6CCN5C)ccc4O)c(OC)cc3CCN2C)cc1 (stereo not given) | 5.33
81 | COc1ccc(C(C)NNC(=O)c2ccncc2)c(OC)c1 (stereo not given) | > 100
82 | CC(C)(C)OC(=O)NCC(O)CNC(=O)OC(C)(C)C | > 100
83 | O=[N+]([O-])c1cc2oc(COc3ccccc3)nc2cc1Cl | 51.3
84 | Cc1ccc(S(=O)(=O)N/N=C/C(=C/c2ccc(Cl)cc2)CC(/C=N/NS(=O)(=O)c2ccc(C)cc2)=C\c2ccc(Cl)cc2)cc1 | 47.2
85 | CC(C)(C)c1cc(C(P(=O)(c2ccccc2)c2ccccc2)P(=O)(c2ccccc2)c2ccccc2)cc(C(C)(C)C)c1O | 3.37
86 | CC(C)(C)C(=O)OCC1CCC[N+]2(C)CCCCC12 (stereo not given) | > 100
87 | NS(=O)(=O)c1nn2c(Br)c(-c3ccccc3)nc2s1 | 21.3
88 | CCN(CC)c1c(N(CC)CC)c(=O)c1=O | 48.4
89 | CN(C)Cc1cc(C(=O)/C=C/c2ccc(Cl)cc2)cc(CN(C)C)c1O | 19.6
90 | O=[N+]([O-])c1ccc(Cl)c(C=NC23CC4CC(CC(C4)C2)C3)c1 | > 10
